pIC50: −log10 of the molar value. Activity calls are given as the source filed them. The rule behind the calls is not given here.
What was measured:
Experiment in all cases: PAD1-3 enzyme inhibition potency, late-stage follow-up, biochemical, colorimetric, BAEE substrate, recombinant PAD1-3 (AID 588462)
[1] = target: Protein-arginine deiminase type-2 (Homo sapiens) (UniProt Q9Y2J8); conditions: recombinant PAD1-3, BAEE citrullination, colorimetric absorbance; PAD2
[2] = target: Protein-arginine deiminase type-1 (Homo sapiens) (UniProt Q9ULC6); conditions: recombinant PAD1-3, BAEE citrullination, colorimetric absorbance; PAD1
Chain of Protein-arginine deiminase type-1 (Homo sapiens) (Q9ULC6 whole entry, looked up): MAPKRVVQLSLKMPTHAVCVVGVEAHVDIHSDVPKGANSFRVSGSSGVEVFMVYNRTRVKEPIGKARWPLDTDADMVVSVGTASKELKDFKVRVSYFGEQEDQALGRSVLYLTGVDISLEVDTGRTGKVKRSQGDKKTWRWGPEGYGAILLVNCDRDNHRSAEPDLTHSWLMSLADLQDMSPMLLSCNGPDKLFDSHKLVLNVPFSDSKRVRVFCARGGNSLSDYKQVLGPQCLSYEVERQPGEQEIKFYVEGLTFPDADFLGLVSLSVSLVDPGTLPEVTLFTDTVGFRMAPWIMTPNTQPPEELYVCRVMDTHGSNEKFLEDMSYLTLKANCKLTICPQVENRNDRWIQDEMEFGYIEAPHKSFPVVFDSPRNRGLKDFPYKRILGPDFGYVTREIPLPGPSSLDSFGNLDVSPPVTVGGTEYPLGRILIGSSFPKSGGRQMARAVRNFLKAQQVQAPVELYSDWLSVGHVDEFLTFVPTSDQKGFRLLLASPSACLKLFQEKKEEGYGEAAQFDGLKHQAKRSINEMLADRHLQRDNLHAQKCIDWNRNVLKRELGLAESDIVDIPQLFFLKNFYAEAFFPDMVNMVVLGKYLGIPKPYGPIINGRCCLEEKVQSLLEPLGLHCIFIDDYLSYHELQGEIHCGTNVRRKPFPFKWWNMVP

[3] = target: Protein-arginine deiminase type-3 (Homo sapiens) (UniProt Q9ULW8); conditions: recombinant PAD1-3, BAEE citrullination, colorimetric absorbance; PAD3
Chain of Protein-arginine deiminase type-3 (Homo sapiens) (Q9ULW8 whole entry, looked up): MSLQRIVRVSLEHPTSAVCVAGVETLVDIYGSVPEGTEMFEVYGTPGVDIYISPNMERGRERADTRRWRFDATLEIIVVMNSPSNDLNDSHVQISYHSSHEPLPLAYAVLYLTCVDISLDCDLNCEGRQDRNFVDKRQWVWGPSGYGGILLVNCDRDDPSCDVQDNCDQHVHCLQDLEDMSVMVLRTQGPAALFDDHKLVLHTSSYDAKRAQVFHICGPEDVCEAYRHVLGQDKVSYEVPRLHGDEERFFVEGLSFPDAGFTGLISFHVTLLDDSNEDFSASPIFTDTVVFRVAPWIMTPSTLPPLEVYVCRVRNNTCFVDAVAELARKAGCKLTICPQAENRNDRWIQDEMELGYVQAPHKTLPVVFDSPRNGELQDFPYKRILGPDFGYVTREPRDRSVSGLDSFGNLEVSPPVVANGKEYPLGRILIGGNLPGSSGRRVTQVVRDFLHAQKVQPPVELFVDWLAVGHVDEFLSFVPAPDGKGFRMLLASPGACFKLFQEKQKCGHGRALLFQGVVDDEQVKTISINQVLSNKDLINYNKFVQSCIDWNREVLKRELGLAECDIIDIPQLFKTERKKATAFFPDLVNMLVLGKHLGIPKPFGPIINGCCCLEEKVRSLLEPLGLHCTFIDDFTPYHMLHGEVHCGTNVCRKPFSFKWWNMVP

Chain of Protein-arginine deiminase type-2 (Homo sapiens) (Q9Y2J8 whole entry, looked up): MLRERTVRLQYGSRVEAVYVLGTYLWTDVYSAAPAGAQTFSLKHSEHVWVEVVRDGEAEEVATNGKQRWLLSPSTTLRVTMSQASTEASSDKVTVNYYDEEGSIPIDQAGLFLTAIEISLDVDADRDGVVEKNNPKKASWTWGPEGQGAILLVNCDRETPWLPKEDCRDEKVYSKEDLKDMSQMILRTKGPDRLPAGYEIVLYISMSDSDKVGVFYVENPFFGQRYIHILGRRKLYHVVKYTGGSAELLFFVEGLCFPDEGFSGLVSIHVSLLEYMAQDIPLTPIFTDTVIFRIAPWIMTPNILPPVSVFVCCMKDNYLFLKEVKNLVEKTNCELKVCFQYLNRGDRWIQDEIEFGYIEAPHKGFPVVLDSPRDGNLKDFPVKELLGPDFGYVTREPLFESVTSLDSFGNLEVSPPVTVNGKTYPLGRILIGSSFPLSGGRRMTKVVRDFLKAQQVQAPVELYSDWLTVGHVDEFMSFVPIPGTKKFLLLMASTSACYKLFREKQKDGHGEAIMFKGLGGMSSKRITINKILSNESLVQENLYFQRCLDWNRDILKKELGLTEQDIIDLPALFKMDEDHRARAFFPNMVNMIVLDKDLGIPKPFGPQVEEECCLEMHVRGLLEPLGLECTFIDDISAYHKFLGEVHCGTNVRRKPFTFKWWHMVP

COC1=C(N)C(=O)c2nc(-c3nc(C(=O)O)c(C)c(-c4ccc(OC)c(OC)c4O)c3N)ccc2C1=O
IC50 [1]: inactive | IC50 [2]: inactive | pIC50 [3]: 6.37

Source: PubChem BioAssay AID588462 (The Scripps Research Institute Molecular Screening Center, 2011)
